Holding throughout (type): functional
The test system of test [1] is Saccharomyces cerevisiae. In words: MMV: Growth assays were conducted using the prototrophic S. cerevisiae strain JHY222. Each MMV compound (0.1 mM) was tested in minimal media containing ethanol and glycerol as carbon sources (Yeast Nitrogen Base, Ethanol, Glycerol; YNBEG). The growth rate in the presence of each MMV compound was calculated as follows: (i) the first 10 OD readings were averaged and subtracted from all OD readings of the corresponding curve to set the baseline of the growth curve to zero, and (ii) the area under the curve (AUC) was then calculated as the sum of all OD readings. […] A relative growth value was calculated as follows: AUC(DRUG) - AUC(DMSO)/AUC(DMSO); where AUC(DMSO) represents growth measured in a DMSO control well that was on the same microtiter plate of the drug-treated culture.

The test system of test [2] is Saccharomyces cerevisiae. In words: (§1) MMV: Growth assays were conducted using the prototrophic S. cerevisiae strain JHY222. Each MMV compound (0.1 mM) was tested in rich media containing dextrose as a carbon source (Yeast Extract, Peptone, Dextrose; YPD). The growth rate in the presence of each MMV compound was calculated as follows: (i) the first 10 OD readings were averaged and subtracted from all OD readings of the corresponding curve to set the baseline of the growth curve to zero, and (ii) the area under the curve (AUC) was then calculated as the sum of all OD readings. […] A relative growth value was calculated as follows: AUC(DRUG) - AUC(DMSO)/AUC(DMSO); where AUC(DMSO) represents growth measured in a DMSO control well that was on the same microtiter plate of the drug-treated culture.

Test [3] relates to Saccharomyces cerevisiae. The description is as §1, with “minimal” for “rich”, “Nitrogen Base,” for “Extract, Peptone,”, “YNBD).” for “YPD).”.

Regarding `COC(=O)c1ccc(C2C3=C(O)CC(c4ccc(F)cc4)CC3=Nc3ccccc3N2C(=O)c2ccccc2)cc1` (stereo not given), the “Relative Growth” value is 0.1245 in the test with Saccharomyces cerevisiae [1], -0.0053 with Saccharomyces cerevisiae [2] and 0.2377 in the test on Saccharomyces cerevisiae [3].

Consider `CN(N=O)C1=C(NC2CCCCC2)C(=O)c2ccccc2C1=O`, for which the “Relative Growth” value with Saccharomyces cerevisiae [1] is given as -0.7745; in the test on Saccharomyces cerevisiae [2], -0.04; with Saccharomyces cerevisiae [3], -0.0674.

Regarding `Clc1ccc2[nH]c3c(NCCCN4CCOCC4)ncnc3c2c1`, the results for the “Relative Growth” value in the test with Saccharomyces cerevisiae [1], with Saccharomyces cerevisiae [2] and with Saccharomyces cerevisiae [3] were -0.0516, 0.0234 and -0.0328, respectively.

As for `CCc1c(C)c(=N)c2ccccc2n1C.I`, the “Relative Growth” value in the test with Saccharomyces cerevisiae [1] is recorded as 0.0462; in the test on Saccharomyces cerevisiae [2], -0.0391; with Saccharomyces cerevisiae [3], 0.0986.

As for `CCN(CC)c1cc(C)c2cc(NC(=O)c3cccc(OC)c3)ccc2n1`, the “Relative Growth” value with Saccharomyces cerevisiae [1] is reported as 0.0148; with Saccharomyces cerevisiae [2] it was 0.0048; in the test with Saccharomyces cerevisiae [3], -0.0149.

As to `Cc1cc(Nc2cccc(F)c2)nc(NCc2ccccc2)n1`, the “Relative Growth” value is reported as -0.2557 in the test with Saccharomyces cerevisiae [1], -0.0448 in the test on Saccharomyces cerevisiae [2] and 0.0258 with Saccharomyces cerevisiae [3].

In the case of `O=C(Nc1ccc(F)c(Cl)c1)Nc1ccc(Cl)c(Cl)c1`, the “Relative Growth” value is reported as -0.9478 in the test on Saccharomyces cerevisiae [1], -0.0686 in the test with Saccharomyces cerevisiae [2] and 0.0832 in the test with Saccharomyces cerevisiae [3].

`CCCn1c(=N)c(C(=O)NC2CCCCC2)cc2c(=O)n3cccc(C)c3nc21`: the figures for the “Relative Growth” value in the test with Saccharomyces cerevisiae [1], in the test on Saccharomyces cerevisiae [2] and in the test with Saccharomyces cerevisiae [3] were 0.0799, -0.0177 and 0.1028, respectively.

With `CNCCCNc1ccnc2cc(Cl)ccc12`, the “Relative Growth” value in the test on Saccharomyces cerevisiae [1] is reported as 0.188; with Saccharomyces cerevisiae [2], 0.1016; in the test with Saccharomyces cerevisiae [3], 0.075.

In the case of `COc1ccc2nc(C)cc(Nc3cccc(O)c3)c2c1.Cl`, the “Relative Growth” value is 0.0008 in the test with Saccharomyces cerevisiae [1], -0.0539 in the test on Saccharomyces cerevisiae [2] and 0.0539 in the test with Saccharomyces cerevisiae [3].

Regarding `COc1ccccc1CNC(=O)C1c2ccccc2C(=O)N(CC(C)C)C1c1cccs1` (stereo not given), the “Relative Growth” value in the test with Saccharomyces cerevisiae [1] is on record as -0.0424; in the test on Saccharomyces cerevisiae [2] it was -0.1327; in the test on Saccharomyces cerevisiae [3] it was -0.0764.

As to `CCOC(=O)c1cn(CC)c2cc(N(C)CCc3ccc(OC)c(OC)c3)c(F)cc2c1=O`, the “Relative Growth” value is recorded as -0.9835 with Saccharomyces cerevisiae [1], -0.6378 in the test on Saccharomyces cerevisiae [2] and -0.8912 in the test with Saccharomyces cerevisiae [3].

Consider `CCOc1ccc(/C=C/c2nc(=O)c3ccccc3o2)cc1`, for which the results for the “Relative Growth” value in the test with Saccharomyces cerevisiae [1], in the test with Saccharomyces cerevisiae [2] and with Saccharomyces cerevisiae [3] were 0.0498, 0.0045 and 0.0067, respectively.

As to `CCOC(=O)c1cnc2ccc(OC)cc2c1Nc1ccc(N2CCN(C)CC2)cc1`, the entries for the “Relative Growth” value in the test on Saccharomyces cerevisiae [1], in the test on Saccharomyces cerevisiae [2] and in the test on Saccharomyces cerevisiae [3] were -0.1675, -0.0196 and 0.0562, respectively.

In the case of `CCOc1ccc(Nc2ccnc3cc(Cl)ccc23)cc1`, the entries for the “Relative Growth” value with Saccharomyces cerevisiae [1], with Saccharomyces cerevisiae [2] and in the test with Saccharomyces cerevisiae [3] were 0.0427, 0.0185 and 0.0274, respectively.

With `COc1cccc(Nc2nc(N)c3ccccc3n2)c1.Cl`, the “Relative Growth” value was -0.036 in the test on Saccharomyces cerevisiae [1], 0.0358 in the test with Saccharomyces cerevisiae [2] and 0.0154 in the test on Saccharomyces cerevisiae [3].

For the compound `O=C(NC1CCN(Cc2ccccc2)CC1)c1cc(-c2ccncc2)nc2ccc(Cl)cc12`, the “Relative Growth” value with Saccharomyces cerevisiae [1] was -0.2602; in the test on Saccharomyces cerevisiae [2], -0.0217; in the test on Saccharomyces cerevisiae [3] it was 0.1716.

For the compound `CCCCCC(=O)N1c2ccccc2N=C2CC(c3ccc(OC)c(OC)c3)CC(O)=C2C1c1ccc(C(F)(F)F)cc1` (stereo not given), the “Relative Growth” value is on record as 0.0121 in the test with Saccharomyces cerevisiae [1], -0.0291 in the test with Saccharomyces cerevisiae [2] and 0.1507 in the test on Saccharomyces cerevisiae [3].

For `Cc1ccc(OCCCCCCNCCO)c(C)c1`, the entries for the “Relative Growth” value with Saccharomyces cerevisiae [1], in the test on Saccharomyces cerevisiae [2] and in the test with Saccharomyces cerevisiae [3] were -0.0581, -0.034 and 0.026, respectively.

Consider `CCCCCCc1cc2cc(-c3nc4ccccc4[nH]3)c(=Nc3ccccc3C)oc2cc1O`, for which the “Relative Growth” value with Saccharomyces cerevisiae [1] is -0.1213; in the test on Saccharomyces cerevisiae [2] it was -0.0113; in the test with Saccharomyces cerevisiae [3] it was 0.1107.

As to `Cc1sc(NC(=O)c2ccccc2)c(C(c2cccs2)N2CCN(c3ccccc3)CC2)c1C` (stereo not given), the “Relative Growth” value with Saccharomyces cerevisiae [1] is 0.0234; in the test with Saccharomyces cerevisiae [2] it was 0.0207; in the test with Saccharomyces cerevisiae [3], -0.0211.

Take `COc1ccc(CCN2C(=O)c3[nH]nc(-c4cc(Cl)c(C)cc4O)c3C2c2ccccc2F)cc1` (stereo not given): the “Relative Growth” value is listed as -0.023 in the test with Saccharomyces cerevisiae [1], -0.0103 with Saccharomyces cerevisiae [2] and -0.1352 in the test with Saccharomyces cerevisiae [3].

Consider `CCn1nc(-c2ccc(C(=O)OC)cc2)nc2c(=O)n(C)c(=O)nc1-2`, for which the entries for the “Relative Growth” value in the test with Saccharomyces cerevisiae [1], with Saccharomyces cerevisiae [2] and in the test with Saccharomyces cerevisiae [3] were 0.1078, 0.0103 and 0.0968, respectively.

Turning to `FC(F)(F)c1ccc(Nc2nnnc3ccccc23)cc1`, the “Relative Growth” value with Saccharomyces cerevisiae [1] was 0.0852; with Saccharomyces cerevisiae [2] it was -0.97; in the test on Saccharomyces cerevisiae [3] it was -0.0492.

With `C[n+]1c2ccccc2nc2ccc(NCCO)cc21`, the “Relative Growth” value with Saccharomyces cerevisiae [1] is reported as -0.0436; in the test with Saccharomyces cerevisiae [2], -0.1972; with Saccharomyces cerevisiae [3] it was 0.0053.

Take `COc1ccc(-c2cn3c(C(=O)Nc4ccccc4Cl)c(-c4ccccc4)c4c3n2CCCC4)cc1`: the “Relative Growth” value in the test on Saccharomyces cerevisiae [1] is recorded as -0.235; in the test on Saccharomyces cerevisiae [2] it was -0.0135; in the test on Saccharomyces cerevisiae [3], 0.0523.

As for `COc1ccc(CNC(=O)c2cc3c(=O)n4ccccc4nc3n(CCc3ccccc3)c2=N)cc1`, the “Relative Growth” value with Saccharomyces cerevisiae [1] is -0.0439; in the test with Saccharomyces cerevisiae [2], -0.0554; in the test on Saccharomyces cerevisiae [3] it was -0.2162.

For the compound `Cl.Clc1cc(Br)ccc1-c1ccc(CNCC2CCNCC2)o1`, the “Relative Growth” value is recorded as -0.083 in the test with Saccharomyces cerevisiae [1], 0.004 in the test on Saccharomyces cerevisiae [2] and 0.0133 with Saccharomyces cerevisiae [3].

As to `CCc1ccc(Nc2cc(C)nc3nc(C)nn23)cc1`, the “Relative Growth” value with Saccharomyces cerevisiae [1] was -0.0737; in the test on Saccharomyces cerevisiae [2], 0.0328; in the test with Saccharomyces cerevisiae [3] it was -0.1477.

With `O=C(Nc1cccc(C2=NCCN2)c1)Nc1cccc(C2=NCCN2)c1` [IMIDOCARB], the figures for the “Relative Growth” value with Saccharomyces cerevisiae [1], in the test with Saccharomyces cerevisiae [2] and in the test on Saccharomyces cerevisiae [3] were 0.0151, -0.365 and 0.0218, respectively.

For `CCCCc1c(C)nc2c(OC)cccc2c1O`, the “Relative Growth” value was 0.0348 in the test on Saccharomyces cerevisiae [1], -0.0392 with Saccharomyces cerevisiae [2] and -0.0292 in the test with Saccharomyces cerevisiae [3].

`Cc1ccc(Nc2nc(NCCO)c3ccccc3n2)cc1C`: the figures for the “Relative Growth” value in the test with Saccharomyces cerevisiae [1], with Saccharomyces cerevisiae [2] and in the test on Saccharomyces cerevisiae [3] were 0.0228, -0.1142 and 0.0139, respectively.

For the compound `CCCCN(CCCC)S(=O)(=O)c1ccc(NC(=O)c2ccco2)cc1`, the figures for the “Relative Growth” value with Saccharomyces cerevisiae [1], in the test on Saccharomyces cerevisiae [2] and in the test with Saccharomyces cerevisiae [3] were -0.9939, -0.9715 and -0.9663, respectively.

`COc1cccc(C(=O)NC(c2ccc(C)cc2)c2cc(Cl)c3cccnc3c2O)c1` (stereo not given): the “Relative Growth” value is reported as 0.1449 with Saccharomyces cerevisiae [1], -0.0292 with Saccharomyces cerevisiae [2] and 0.017 in the test on Saccharomyces cerevisiae [3].

In the case of `CCOc1ccc2nc(C)cc(Nc3ccc(N(C)C)cc3)c2c1.Cl`, the “Relative Growth” value is -0.2064 in the test with Saccharomyces cerevisiae [1], -0.2818 in the test on Saccharomyces cerevisiae [2] and -0.1579 in the test with Saccharomyces cerevisiae [3].

`COc1cccc(C2(C)Nc3ccccc3-c3nc4ccccc4n32)c1` (stereo not given): the “Relative Growth” value with Saccharomyces cerevisiae [1] was -0.0556; in the test on Saccharomyces cerevisiae [2] it was 0.098; in the test on Saccharomyces cerevisiae [3] it was -0.0211.

Take `Cc1ccccc1OCCSc1nc2ccc(NC(=O)c3cccs3)cc2s1`: the “Relative Growth” value is listed as -0.9335 with Saccharomyces cerevisiae [1], -0.0038 in the test on Saccharomyces cerevisiae [2] and -0.1829 in the test on Saccharomyces cerevisiae [3].

For the compound `FC(F)(F)c1cccc(CNC2CCN(CCc3ccccc3)CC2)c1`, the “Relative Growth” value in the test on Saccharomyces cerevisiae [1] is -0.3142; with Saccharomyces cerevisiae [2] it was -0.0003; in the test with Saccharomyces cerevisiae [3], -0.0056.

Turning to `Cc1cc(C)c2c(c1)OCN(Cc1ccccc1Cl)C2`, the “Relative Growth” value with Saccharomyces cerevisiae [1] is -0.3214; in the test with Saccharomyces cerevisiae [2], -0.0627; in the test with Saccharomyces cerevisiae [3], -0.0636.

With `CCN(CC)CCNc1ccnc2cc3ccccc3cc12.O=P(O)(O)O`, the “Relative Growth” value is recorded as -0.0873 in the test with Saccharomyces cerevisiae [1], 0.0094 with Saccharomyces cerevisiae [2] and -0.1052 with Saccharomyces cerevisiae [3].

On to `COc1ccc(C(=O)Nc2ccc3nc(N4CCCCC4)cc(C)c3c2)cc1OC`, for which the figures for the “Relative Growth” value with Saccharomyces cerevisiae [1], in the test with Saccharomyces cerevisiae [2] and in the test on Saccharomyces cerevisiae [3] were -0.4538, -0.0828 and -0.1419, respectively.

For `CCOc1ccc2nc(C)cc(Nc3ccc(Br)cc3)c2c1`, the “Relative Growth” value is on record as 0.014 in the test on Saccharomyces cerevisiae [1], 0.0466 with Saccharomyces cerevisiae [2] and -0.9176 in the test on Saccharomyces cerevisiae [3].

For the compound `N#Cc1nc(Cc2cccc3ccccc23)oc1N1CCN(C(c2ccccc2)c2ccccc2)CC1`, the “Relative Growth” value is 0.0463 in the test with Saccharomyces cerevisiae [1], -0.0026 with Saccharomyces cerevisiae [2] and 0.059 in the test on Saccharomyces cerevisiae [3].

Take `COc1ccc(C(=O)Nc2nonc2-c2ccc(OC)c(OC)c2)cc1Cl`: the results for the “Relative Growth” value with Saccharomyces cerevisiae [1], with Saccharomyces cerevisiae [2] and with Saccharomyces cerevisiae [3] were 0.0586, -0.0037 and 0.1144, respectively.

For the compound `Cc1ccc(-c2nc3ccccc3o2)cc1NCc1cc(Cc2ccccc2)ccc1O`, the figures for the “Relative Growth” value with Saccharomyces cerevisiae [1], in the test on Saccharomyces cerevisiae [2] and in the test on Saccharomyces cerevisiae [3] were -0.1416, -0.0705 and 0.0201, respectively.

(Values after ChEMBL document CHEMBL3301546, “MMV Malaria Box yeast growth screening”.)
